Source: patent US11826351B2, “Compounds useful as kinase inhibitors” (Loxo Oncology, Inc., priority 2015, dated 2023)

Tests used:
[1] = test system: OCI-Ly10 human DLBCL cells; assay: OCI-Ly10 anti-proliferative activity (Resazurin); format: cell-based; conditions: Homo sapiens, OCI-Ly10, 72 h, OCI-Ly10 cells, 72 h compound treatment, Resazurin; read-out: Proliferation Assay OCI-Ly10-20% FBS
Procedure, shortened: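 OCI-Ly10 human DLBCL cells, whose growth depends on NFκB signalling, were seeded at 7.5×10^3 cells per well in 96-well plates with a range of compound concentrations and kept at 37° C for 72 h. Resazurin was then added, and after 5 h fluorescence was read at 590 nm.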

[2] = target: T1, Recombinant BTK^C481S kinase (Homo sapiens, UniProt Q06187, C481S); assay: BTK C481S binding affinity (LanthaScreen TR-FRET); conditions: Kinase Tracer 236, 5 h incubation
T1 construct: purchased SignalChem
T1 sequence (Q06187 whole entry C481S): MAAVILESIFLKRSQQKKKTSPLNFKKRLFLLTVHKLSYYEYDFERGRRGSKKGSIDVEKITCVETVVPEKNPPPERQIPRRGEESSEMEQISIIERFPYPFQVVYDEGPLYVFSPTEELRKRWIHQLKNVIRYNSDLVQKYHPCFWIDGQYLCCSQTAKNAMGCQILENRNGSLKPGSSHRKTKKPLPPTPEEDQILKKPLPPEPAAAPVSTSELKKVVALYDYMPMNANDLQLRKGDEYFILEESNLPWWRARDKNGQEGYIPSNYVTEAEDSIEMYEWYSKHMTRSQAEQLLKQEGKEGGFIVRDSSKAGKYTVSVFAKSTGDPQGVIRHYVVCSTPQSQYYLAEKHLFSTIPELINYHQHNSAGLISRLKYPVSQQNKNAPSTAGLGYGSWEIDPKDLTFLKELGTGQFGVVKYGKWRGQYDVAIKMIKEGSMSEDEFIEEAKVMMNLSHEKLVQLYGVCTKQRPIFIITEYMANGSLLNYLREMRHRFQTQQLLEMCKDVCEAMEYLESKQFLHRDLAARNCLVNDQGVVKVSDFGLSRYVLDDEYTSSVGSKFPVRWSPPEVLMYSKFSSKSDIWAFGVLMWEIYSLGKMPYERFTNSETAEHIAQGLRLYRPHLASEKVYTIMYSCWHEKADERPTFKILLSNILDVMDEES
Procedure, shortened: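 BTK C481S tracer-displacement TR-FRET: 5 nM His-tagged kinase, 2 nM Eu anti-His antibody and 30 nM Kinase Tracer 236 incubated with titrated inhibitor for 5 h in Kinase Buffer A. Read at 340 nm excitation, 615/665 nm emission; IC50 from variable-slope log[inhibitor]–response fit.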

[3] = target: T2, Recombinant BTK^WT kinase (Homo sapiens, UniProt Q06187); assay: BTK WT binding affinity (LanthaScreen TR-FRET); conditions: Kinase Tracer 236, 5 h incubation
T2 construct: purchased Invitrogen
T2 sequence (Q06187 whole entry): as the sequence (Q06187 whole entry C481S) above, with S481C counted along it
Procedure, shortened: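 Tracer-displacement TR-FRET: 2.5 nM recombinant BTK^WT, 2 nM Eu anti-His antibody and 15 nM Kinase Tracer 236 incubated with varying inhibitor concentrations for 5 h in Kinase Buffer A. Signal read at 340 nm excitation, 615/665 nm emission; IC50 from variable-slope log[inhibitor]–response fit.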

Recombinant EGFR = target: T3, Recombinant EGFR (Homo sapiens, UniProt P00533); assay: EGFR binding affinity (LanthaScreen TR-FRET); conditions: Kinase Tracer 199, 5 h incubation
T3 construct: purchased Invitrogen
T3 sequence (P00533 25-1210): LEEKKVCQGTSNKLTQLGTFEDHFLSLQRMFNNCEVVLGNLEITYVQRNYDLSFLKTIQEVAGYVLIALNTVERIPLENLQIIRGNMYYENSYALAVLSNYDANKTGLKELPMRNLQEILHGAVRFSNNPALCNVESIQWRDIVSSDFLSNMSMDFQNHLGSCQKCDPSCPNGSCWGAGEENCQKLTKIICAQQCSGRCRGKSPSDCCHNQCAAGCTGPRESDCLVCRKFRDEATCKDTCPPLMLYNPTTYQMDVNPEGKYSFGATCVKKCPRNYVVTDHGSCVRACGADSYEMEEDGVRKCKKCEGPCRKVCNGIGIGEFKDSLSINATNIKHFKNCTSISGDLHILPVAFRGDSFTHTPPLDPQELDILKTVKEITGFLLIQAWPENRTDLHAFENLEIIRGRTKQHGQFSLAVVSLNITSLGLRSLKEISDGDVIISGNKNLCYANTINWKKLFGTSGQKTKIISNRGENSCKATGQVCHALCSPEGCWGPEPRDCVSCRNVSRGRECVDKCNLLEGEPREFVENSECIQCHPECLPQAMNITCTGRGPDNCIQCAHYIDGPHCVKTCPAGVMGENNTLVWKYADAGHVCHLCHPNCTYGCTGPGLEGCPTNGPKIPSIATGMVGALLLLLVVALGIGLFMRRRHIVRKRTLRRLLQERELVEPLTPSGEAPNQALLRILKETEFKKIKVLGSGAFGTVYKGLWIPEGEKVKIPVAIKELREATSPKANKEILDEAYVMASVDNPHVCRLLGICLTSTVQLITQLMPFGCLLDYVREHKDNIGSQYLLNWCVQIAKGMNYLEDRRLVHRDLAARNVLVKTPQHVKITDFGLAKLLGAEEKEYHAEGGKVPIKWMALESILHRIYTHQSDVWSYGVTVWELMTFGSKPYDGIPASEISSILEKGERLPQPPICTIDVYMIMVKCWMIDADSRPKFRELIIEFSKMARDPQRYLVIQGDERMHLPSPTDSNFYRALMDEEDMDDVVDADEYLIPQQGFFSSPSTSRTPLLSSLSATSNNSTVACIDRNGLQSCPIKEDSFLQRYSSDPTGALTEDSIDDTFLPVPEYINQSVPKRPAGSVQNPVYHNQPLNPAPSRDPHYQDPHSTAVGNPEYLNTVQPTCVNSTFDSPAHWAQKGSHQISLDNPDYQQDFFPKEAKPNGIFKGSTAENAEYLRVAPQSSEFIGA
Procedure, shortened: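 TR-FRET binding (LanthaScreen) with recombinant EGFR; signal measured across a compound concentration range. IC50 obtained by fitting RFU against log[inhibitor] to a variable-slope model.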

| IC50 [1] [nM] | IC50 [2] [nM] | IC50 [3] [nM] | IC50 (Recombinant EGFR) [nM] | Structure (SMILES) |
| --- | --- | --- | --- | --- |
| 10 to 100 | < 10 | < 10 | 1000 to 10000 | COc1ccc(F)cc1C(=O)NCc1ccc(-c2nn(C3CN(C)CC3(F)F)c(N)c2C(N)=O)cc1 (stereo not drawn) [Example 199, 5-amino-1-(4,4-difluoro-1-methyl-pyrrolidin-3-yl)-3-[4-[[(5-fluoro-2-methoxy-benzoyl)amino]methyl]phenyl]pyrazole-4-carboxamide] |
| 10 to 100 | < 10 | < 10 | 1000 to 10000 | COc1ccc(F)cc1C(=O)NCc1ccc(-c2nn(C3CN(C(C)C)CC3(F)F)c(N)c2C(N)=O)cc1 (stereo not drawn) [Example 197, 5-amino-1-(4,4-difluoro-1-isopropyl-pyrrolidin-3-yl)-3-[4-[[(5-fluoro-2-methoxy-benzoyl)amino]methyl]phenyl]pyrazole-4-carboxamide] |
| 10 to 100 | < 10 | < 10 | 100 to 1000 | COc1ccccc1C(=O)NCc1ccc(-c2nn(C(C)C)c(N)c2C(N)=O)cc1 [Example 19, 5-amino-1-isopropyl-3-[4-[[(2-methoxybenzoyl)amino]methyl]phenyl]pyrazole-4-carboxamide] |
| 100 to 1000 | 100 to 1000 | 100 to 1000 | 1000 to 10000 | COc1ccccc1C(=O)NCC(O)c1ccc(-c2nn(C3CCCC3)c(N)c2C(N)=O)cc1C (stereo not drawn) [Example 187, 5-amino-1-cyclopentyl-3-[4-[1-hydroxy-2-[(2-methoxybenzoyl)amino]ethyl]-3-methyl-phenyl]pyrazole-4-carboxamide] |
| 1000 to 10000 | 10 to 100 | 10 to 100 | > 10000 | COc1ccccc1C(=O)NCc1ccc(-c2nn(C3CCCC3)c(N)c2C(N)=O)cn1 [Example 134, 5-amino-1-cyclopentyl-3-[6-[[(2-methoxybenzoyl)amino]methyl]-3-pyridyl]pyrazole-4-carboxamide] |
| 10 to 100 | < 10 | < 10 | 100 to 1000 | COc1ccccc1C(=O)NCc1ccc(-c2nn(C3CC(O)c4ccccc43)c(N)c2C(N)=O)cc1 (stereo not drawn) [Example 63, 5-amino-1-(3-hydroxyindan-1-yl)-3-[4-[[(2-methoxybenzoyl)amino]methyl]phenyl]pyrazole-4-carboxamide] |
| 1000 to 10000 | < 10 | < 10 | 100 to 1000 | COc1ccccc1C(=O)NCc1ccc(-c2nn(C3CCC(C(=O)O)CC3)c(N)c2C(N)=O)cc1 (mixture of isomers) [Example 74, 4-[5-amino-4-carbamoyl-3-[4-[[(2-methoxybenzoyl)amino]methyl]phenyl]pyrazol-1-yl]cyclohexanecarboxylic acid] |
| 100 to 1000 | < 10 | 10 to 100 | 1000 to 10000 | COc1ccccc1C(=O)NCc1ccc(-c2nn(C3CCCC3)c(NC(C)C)c2C(N)=O)cc1 [Example 72, 1-cyclopentyl-5-(isopropylamino)-3-[4-[[(2-methoxybenzoyl)amino]methyl]phenyl]pyrazole-4-carboxamide] |

Further lines, the compound ahead of its results:

| Structure (SMILES) | IC50 [1] [nM] | IC50 [2] [nM] | IC50 [3] [nM] | IC50 (Recombinant EGFR) [nM] |
| --- | --- | --- | --- | --- |
| COc1ccc(F)cc1C(=O)NCc1ccc(-c2nn(C(C(C)C)C(F)(F)F)c(N)c2C(N)=O)cc1 (stereo not drawn) [Example 180, 5-amino-3-[4-[[(5-fluoro-2-methoxy-benzoyl)amino]methyl]phenyl]-1-[2-methyl-1-(trifluoromethyl)propyl]pyrazole-4-carboxamide] | 10 to 100 | < 10 | < 10 | 1000 to 10000 |
| COc1ccccc1C(=O)NCc1ccc(-c2nn(C3CCOC3)c(N)c2C(N)=O)cc1F (stereo not drawn) [Example 109, 5-amino-3-[3-fluoro-4-[[(2-methoxybenzoyl)amino]methyl]phenyl]-1-tetrahydrofuran-3-yl-pyrazole-4-carboxamide] | 100 to 1000 | < 10 | < 10 | 1000 to 10000 |
| COc1ccccc1C(=O)NCc1ccc(-c2nn(CCN3CCOCC3)c(N)c2C(N)=O)cc1 [Example 9, 5-Amino-3-[4-[[(2-methoxybenzoyl)amino]methyl]phenyl]-1-(2-morpholinoethyl)pyrazole-4-carboxamide] | 100 to 1000 | 10 to 100 | 10 to 100 | 1000 to 10000 |
| COc1ccccc1C(=O)NCc1ccc(-c2nn(C(C)C3CC3)c(N)c2C(N)=O)cc1 (stereo not drawn) [Example 131, 5-amino-1-(1-cyclopropylethyl)-3-[4-[[(2-methoxybenzoyl)amino]methyl]phenyl]pyrazole-4-carboxamide] | 10 to 100 | < 10 | < 10 | 100 to 1000 |
| COc1ccccc1C(=O)NCc1ccc(-c2nn(C[C@@H]3CCCNC3)c(N)c2C(N)=O)cc1 [Example 38, 5-amino-3-[4-[[(2-methoxybenzoyl)amino]methyl]phenyl]-1-[[(3R)-3-piperidyl]methyl]pyrazole-4-carboxamide] | > 10000 | 1000 to 10000 | > 10000 | > 10000 |
| CCN1CC(n2nc(-c3ccc(CNC(=O)c4cc(F)ccc4OC)cc3)c(C(N)=O)c2N)C(F)(F)C1 (stereo not drawn) [Example 198, 5-Amino-1-(1-ethyl-4,4-difluoro-pyrrolidin-3-yl)-3-[4-[[(5-fluoro-2-methoxy-benzoyl)amino]methyl]phenyl]pyrazole-4-carboxamide] | 10 to 100 | < 10 | < 10 | 1000 to 10000 |
| CNc1c(C(N)=O)c(-c2ccc(CNC(=O)c3ccccc3OC)cc2)nn1C1CCCC1 [Example 60, 1-cyclopentyl-3-[4-[[(2-methoxybenzoyl)amino]methyl]phenyl]-5-(methylamino)pyrazole-4-carboxamide] | 10 to 100 | < 10 | < 10 | 100 to 1000 |
| COc1ccccc1C(=O)NCc1ccc(-c2nn(C3CCOC3)c(N)c2C(N)=O)cc1 (stereo not drawn) [Example 36, 5-Amino-3-[4-[[(2-methoxybenzoyl)amino]methyl]phenyl]-1-tetrahydrofuran-3-yl-pyrazole-4-carboxamide] | 10 to 100 | < 10 | < 10 | 1000 to 10000 |
| CNc1c(C(N)=O)c(-c2ccc(CNC(=O)c3ccccc3OC)cc2)nn1C1CCOCC1 [Example 91, 3-[4-[[(2-methoxybenzoyl)amino]methyl]phenyl]-5-(methylamino)-1-tetrahydropyran-4-yl-pyrazole-4-carboxamide] | 100 to 1000 | < 10 | 10 to 100 | 1000 to 10000 |
| COc1ccc(F)cc1C(=O)NCc1ccc(-c2nn(CC(F)(F)F)c(N)c2C(N)=O)c(F)c1 [Example 125, 5-amino-3-[2-fluoro-4-[[(5-fluoro-2-methoxy-benzoyl)amino]methyl]phenyl]-1-(2,2,2-trifluoroethyl)pyrazole-4-carboxamide] | 100 to 1000 | < 10 | 10 to 100 | > 10000 |
| COc1ccccc1C(=O)NCc1ccc(-c2nn(C3CCC3)c(N)c2C(N)=O)cc1 [Example 35, 5-Amino-1-cyclobutyl-3-[4-[[(2-methoxybenzoyl)amino]methyl]phenyl]pyrazole-4-carboxamide] | 10 to 100 | < 10 | < 10 | 1000 to 10000 |
| COc1ccccc1C(=O)NCc1ccc(-c2nn(C3CCC4(CC3)COC4)c(N)c2C(N)=O)cc1 [Example 71, 5-amino-3-[4-[[(2-methoxybenzoyl)amino]methyl]phenyl]-1-(2-oxaspiro[3.5]nonan-7-yl)pyrazole-4-carboxamide] | 10 to 100 | < 10 | < 10 | 100 to 1000 |
| COc1ccccc1C(=O)NCc1ccc(-c2nn(CC(F)(F)F)c(N)c2C(N)=O)c(F)c1 [Example 124, 5-amino-3-[2-fluoro-4-[[(2-methoxybenzoyl)amino]methyl]phenyl]-1-(2,2,2-trifluoroethyl)pyrazole-4-carboxamide] | 100 to 1000 | 10 to 100 | 10 to 100 | 1000 to 10000 |
| COc1ccc(F)cc1C(=O)NCc1cc(F)c(-c2nn(C3CCCC3)c(N)c2C(N)=O)cc1F [Example 137, 5-amino-1-cyclopentyl-3-[2,5-difluoro-4-[[(5-fluoro-2-methoxy-benzoyl)amino]methyl]phenyl]pyrazole-4-carboxamide] | 10 to 100 | < 10 | < 10 | 1000 to 10000 |
| COc1ccccc1C(=O)NCc1ccc(-c2nn(-c3cccnc3)c(N)c2C(N)=O)cc1 [Example 51, 5-amino-3-[4-[[(2-methoxybenzoyl)amino]methyl]phenyl]-1-(3-pyridyl)pyrazole-4-carboxamide] | 10 to 100 | < 10 | < 10 | 100 to 1000 |
| COc1ccccc1C(=O)NCc1cc(F)c(-c2nn(C3CCCC3)c(N)c2C(N)=O)cc1F [Example 156, 5-amino-1-cyclopentyl-3-[2,5-difluoro-4-[[(2-methoxybenzoyl)amino]methyl]phenyl]pyrazole-4-carboxamide] | 10 to 100 | < 10 | < 10 | > 10000 |
